Laboratory results published in publication PMC12133000 (PLOS One, 2025).
Where two headings read alike, the source gives them in different places.

Assay: Pharmacokinetics of rivaroxaban in rats after avitinib or gefitinib pretreatment
Type: in vivo, Sprague–Dawley (SD) rats
Details: male, Sprague-Dawley, rat, plasma; for AUC(0-t): read-out: AUC(0-t); for CL/F: read-out: CLz/F (converted); for Cmax: read-out: Cmax; for MRT last: read-out: MRT(0-t); for half-life: read-out: t1/2z (converted); for k el: read-out: λz (converted); for MRT inf: read-out: MRT(0-∞)
Protocol: Eighteen male Sprague–Dawley (SD) rats weighing 300 ± 20 g were provided by the Experimental Animal Center of Wenzhou Medical University (Wenzhou, China) and kept under controlled conditions at a temperature of 23 ± 2 °C, relative humidity of 50 ± 10%, and 12 h light–dark cycle. Eighteen male SD rats were randomly assigned to three groups: avitinib, gefitinib, and control, with six rats per group. Prior to the experiment, the rats were not administered any other medications and fasted for 12 h. The experimental procedures and protocols adhered to Animal Ethics standards and were approved by the Animal Care and Use Committee of Wenzhou Medical University (approval no. wydw2019–650). All rats were anesthetized with sodium pentobarbital (40mg/kg, i.p) to relieve pain. The rats were killed through cervical dislocation.
Prior to the experiment in vivo, the six rats in the avitinib group were administered 30 mg/kg avitinib and 0.5% sodium carboxymethyl cellulose (CMC-Na) solution by gavage daily for 7 d. […] The supernatant was collected and stored at −80 °C. After thawing, 50 μL of plasma was extracted; 100 μL of acetonitrile solution containing midazolam (200 ng/mL) was then added to induce protein precipitation. After vortexing for 30 s and centrifuging at 13,000 rpm for 5 min, the […].
All assays were performed in triplicate, and the results are expressed as mean ± standard deviation. DAS software v. […] SPSS v. 25.0 (IBM, NY, USA) was used for data processing. Student’s t-tests were used to detect differences between groups. Differences with p < 0.05 were considered statistically significant.

[1] = po, 10 mg/kg, avitinib group, Mean
[2] = po, 10 mg/kg, avitinib group, single rats No1-No6
[3] = po, 10 mg/kg, gefitinib group, Mean
[4] = po, 10 mg/kg, gefitinib group, single rats No1-No6

Work on `O=C(NC[C@H]1CN(c2ccc(N3CCOCC3=O)cc2)C(=O)O1)c1ccc(Cl)s1` [rivaroxaban, Rivaroxaban] yielded a concentration at 12 h (oral, rivaroxaban ng/ml mean, 吉非替尼 (gefitinib) group, mean of rats 7-12, time 12) of 1640 ng/mL, a concentration at 24 h (oral, rivaroxaban ng/ml mean, 艾维替尼 (avitinib) group, mean (one rat only), time 24) of 14.8 ng/mL and a concentration at 5 min (oral, rivaroxaban ng/ml mean, 艾维替尼 (avitinib) group, mean of rats 1-6, time 0.0833) of 284 ng/mL. It also gave a concentration at 0.25 h (oral, rivaroxaban ng/ml mean, 艾维替尼 (avitinib) group, mean of rats 1-6, time 0.25) of 588 ng/mL, a concentration at 0.5 h (oral, rivaroxaban ng/ml mean, 艾维替尼 (avitinib) group, mean of rats 1-6, time 0.5) of 1090 ng/mL and a concentration at 1 h (oral, rivaroxaban ng/ml mean, 艾维替尼 (avitinib) group, mean of rats 1-6, time 1) of 1730 ng/mL. For the same molecule, the concentration at 2 h (oral, rivaroxaban ng/ml mean, 艾维替尼 (avitinib) group, mean of rats 1-6, time 2) was 1650 ng/mL, the concentration at 3 h (oral, rivaroxaban ng/ml mean, 艾维替尼 (avitinib) group, mean of rats 1-6, time 3) was 1390 ng/mL and the concentration at 4 h (oral, rivaroxaban ng/ml mean, 艾维替尼 (avitinib) group, mean of rats 1-6, time 4) was 1010 ng/mL. For the same molecule, the concentration at 6 h (oral, rivaroxaban ng/ml mean, 艾维替尼 (avitinib) group, mean of rats 1-6, time 6) was 538 ng/mL, the concentration at 8 h (oral, rivaroxaban ng/ml mean, 艾维替尼 (avitinib) group, mean of rats 1-6, time 8) was 448 ng/mL and the concentration at 12 h (oral, rivaroxaban ng/ml mean, 艾维替尼 (avitinib) group, mean of rats 1-6, time 12) was 80.9 ng/mL. For the same molecule, the concentration at 0.25 h (oral, rivaroxaban ng/ml, 吉非替尼 (gefitinib) group, individual rats 7-12, time 0.25) was 1690 ng/mL, the concentration at 0.5 h (oral, rivaroxaban ng/ml, 吉非替尼 (gefitinib) group, individual rats 7-12, time 0.5) was 3820 ng/mL and the concentration at 1 h (oral, rivaroxaban ng/ml, 吉非替尼 (gefitinib) group, individual rats 7-12, time 1) was 5910 ng/mL. It also gave a concentration at 3 h (oral, rivaroxaban ng/ml, 吉非替尼 (gefitinib) group, individual rats 7-12, time 3) of 9510 ng/mL, a concentration at 4 h (oral, rivaroxaban ng/ml, 吉非替尼 (gefitinib) group, individual rats 7-12, time 4) of 11300 ng/mL and a concentration at 6 h (oral, rivaroxaban ng/ml, 吉非替尼 (gefitinib) group, individual rats 7-12, time 6) of 3980 ng/mL. For the same molecule, the concentration at 8 h (oral, rivaroxaban ng/ml, 吉非替尼 (gefitinib) group, individual rats 7-12, time 8) was 3270 ng/mL, the concentration at 5 min (oral, rivaroxaban ng/ml, 艾维替尼 (avitinib) group, individual rats 1-6, time 0.0833) was 237 ng/mL and the concentration at 24 h (oral, rivaroxaban ng/ml, 艾维替尼 (avitinib) group, individual rats 1-6, time 24) was 14.8 ng/mL. It also gave an AUC(0-inf) [1] of 9350 ng·h/mL, a Tmax [1] of 1.33 h and an AUC(0-t) [1] of 9000 ng·h/mL. The CL/F [1] was 19.7 mL/min/kg, the Cmax [1] was 1810 ng/mL and the MRT last [1] was 3.79 h. The half-life [1] was 2.2 h, the k el [1] was 0.000104 s⁻¹ and the Tmax [2] was 1 h. For the same molecule, the MRT last [2] was 3.83 h, the MRT inf [2] was 2.87 h and the AUC(0-inf) [3] was 76000 ng·h/mL. It also gave a Tmax [3] of 3.17 h, an AUC(0-t) [3] of 58000 ng·h/mL and a CL/F [3] of 2.32 mL/min/kg. It also gave a Cmax [3] of 8310 ng/mL, an MRT last [3] of 4.9 h and an MRT inf [3] of 8.23 h. For the same molecule, the Vd/F (po, 10 mg/kg, gefitinib group, Mean, read-out: Vz/F) was 0.867 L/kg, the half-life [3] was 4.81 h and the k el [3] was 5.17e-05 s⁻¹. It also gave an AUC(0-inf) [4] of 109000 ng·h/mL, an AUC(0-t) [4] of 62400 ng·h/mL and a CL/F [4] of 1.53 mL/min/kg. For the same molecule, the Cmax [4] was 6780 ng/mL.
